Assay results as given in PubChem BioAssay (NCI).
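Five compound concentrations were applied to cells in 96-well plates for 48 hours; endpoints were derived by simple linear interpolation of the resulting dose-response curve. The concentration for full growth arrest is given as TGI.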

Assays:
Experiment in all cases: NCI anticancer screen, dose series, 48 h
HCT-116 colon = system: HCT-116 colon
K-562 leukemia = system: K-562 leukemia
CCRF-CEM leukemia = system: CCRF-CEM leukemia
LOX IMVI melanoma = system: LOX IMVI melanoma
MALME-3M melanoma = system: MALME-3M melanoma
UACC-257 melanoma = system: UACC-257 melanoma
UACC-62 melanoma = system: UACC-62 melanoma
KM20L2 colon = system: KM20L2 colon
SF-268 CNS = system: SF-268 CNS
ACHN renal = system: ACHN renal
RXF 393 renal = system: RXF 393 renal
A549 NSCLC = system: A549 NSCLC
SF-295 CNS = system: SF-295 CNS
HCT-15 colon = system: HCT-15 colon
CAKI-1 renal = system: CAKI-1 renal
KM12 colon = system: KM12 colon
DLD-1 colon = system: DLD-1 colon
M19-MEL melanoma = system: M19-MEL melanoma
TK-10 renal = system: TK-10 renal
IGROV1 ovarian = system: IGROV1 ovarian
DMS 273 small cell lung = system: DMS 273 small cell lung
RPMI-8226 leukemia = system: RPMI-8226 leukemia
EKVX NSCLC = system: EKVX NSCLC
SF-539 CNS = system: SF-539 CNS
HCC-2998 colon = system: HCC-2998 colon
SK-OV-3 ovarian = system: SK-OV-3 ovarian
OVCAR-8 ovarian = system: OVCAR-8 ovarian
OVCAR-4 ovarian = system: OVCAR-4 ovarian
M14 melanoma = system: M14 melanoma
HT29 colon = system: HT29 colon
SNB-78 CNS = system: SNB-78 CNS
RXF-631 renal = system: RXF-631 renal
HL-60(TB) leukemia = system: HL-60(TB) leukemia
786-0 renal = system: 786-0 renal
OVCAR-5 ovarian = system: OVCAR-5 ovarian
COLO 205 colon = system: COLO 205 colon
A498 renal = system: A498 renal
MOLT-4 leukemia = system: MOLT-4 leukemia
OVCAR-3 ovarian = system: OVCAR-3 ovarian
NCI-H226 lung = system: NCI-H226 lung
SW-620 colon = system: SW-620 colon
SK-MEL-5 melanoma = system: SK-MEL-5 melanoma
U251 CNS = system: U251 CNS
UO-31 renal = system: UO-31 renal
HOP-18 NSCLC = system: HOP-18 NSCLC
HOP-92 NSCLC = system: HOP-92 NSCLC
DMS 114 small cell lung = system: DMS 114 small cell lung
NCI-H522 lung = system: NCI-H522 lung
SN12C renal = system: SN12C renal
SNB-19 CNS = system: SNB-19 CNS
SNB-75 CNS = system: SNB-75 CNS
NCI-H23 lung = system: NCI-H23 lung
SK-MEL-28 melanoma = system: SK-MEL-28 melanoma
LXFL 529 NSCLC = system: LXFL 529 NSCLC
SK-MEL-2 melanoma = system: SK-MEL-2 melanoma

Measured: TGI

CC12OC3(C)OC(=O)C(c4ccccc4)(O1)C3(C)O2 (stereo not given)
> 100 µM: all assays above
